Source: publication PMC4523242 (Antiviral Research, 2014)
Read-outs that look alike come from different tables or passages of the source.

What was measured:
[1] = molecular target: Renilla luciferase (Rluc) (Renilla reniformis, UniProt P27652); type: biochemical
[2] = tested on: DENV2 replicon; experiment: DENV2 Rluc reporter replicon inhibition assay in BHK-21/DENV2 cells; type: cell-based, Dengue virus type 2; details: for % replicon inhibition (Means ± SEM) DENV2: 50 μM, 24 h, BHK-21/DENV2 replicon cells; for EC50: Dengue virus
[3] = tested on: WNV replicon; experiment: WNV Rluc reporter replicon inhibition assay in Vero/WNV cells; type: cell-based, West Nile virus; details: 24 h; for EC50: read-out: WNV replicon EC50; for % replicon inhibition (Means ± SEM) WNV: 50 μM
[4] = molecular target: DENV2 5'-RNA methyltransferase (NS5FL) (Dengue virus type 2, UniProt P14340); type: biochemical
[5] = molecular target: DENV2 NS5 RdRP (Dengue virus type 2, UniProt P14340); experiment: RNA-dependent RNA polymerase assay; type: biochemical
[6] = Cytotoxicity; details: African green monkey, naïve Vero cells
[7] = tested on: DENV2; experiment: qRT-PCR of intracellular and extracellular DENV2 RNA in infected BHK-21 cells; type: cell-based, Dengue virus type 2; details: 5 μM, MOI of 1, 72 h
[8] = molecular target: T1, DENV2 NS2B-NS3 protease (Dengue virus type 2, UniProt P14340); type: biochemical
T1 sequence (P14340 1476-1653 limits assumed): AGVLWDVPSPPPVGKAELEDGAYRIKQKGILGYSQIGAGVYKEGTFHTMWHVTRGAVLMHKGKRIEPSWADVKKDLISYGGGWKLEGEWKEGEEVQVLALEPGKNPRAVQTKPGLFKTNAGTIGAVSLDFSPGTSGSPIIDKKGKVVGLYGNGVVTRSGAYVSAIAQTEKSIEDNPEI
T1 sequence (P14340 1398-1437 limits assumed): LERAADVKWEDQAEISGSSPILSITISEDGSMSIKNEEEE

[9] = tested on: DENV2; experiment: DENV2 infectivity in BHK-21 cells, plaque assay of supernatants; type: cell-based, Dengue virus type 2
[10] = tested on: DENV2; experiment: Direct plaque assay; type: cell-based, Dengue virus type 2; details: MOI of 0.01
[11] = Viability of replicon expressing cells; details: hamster, BHK-21 cells expressing DENV2 replicon
[12] = tested on: BHK-21 cells; experiment: Cytotoxicity; details: read-out: DENV2 replicon CC50, 24 h
[13] = tested on: Vero cells; experiment: Cytotoxicity; details: read-out: WNV replicon CC50; Vero cells, 24 h
[14] = DENV2, BHK-21, 24 h, read-out: DENV2 replicon EC50
[15] = Vero/WNV replicon cells, Rluc, initial screening

Sequence of Renilla luciferase (Rluc) (P27652 whole entry, looked up): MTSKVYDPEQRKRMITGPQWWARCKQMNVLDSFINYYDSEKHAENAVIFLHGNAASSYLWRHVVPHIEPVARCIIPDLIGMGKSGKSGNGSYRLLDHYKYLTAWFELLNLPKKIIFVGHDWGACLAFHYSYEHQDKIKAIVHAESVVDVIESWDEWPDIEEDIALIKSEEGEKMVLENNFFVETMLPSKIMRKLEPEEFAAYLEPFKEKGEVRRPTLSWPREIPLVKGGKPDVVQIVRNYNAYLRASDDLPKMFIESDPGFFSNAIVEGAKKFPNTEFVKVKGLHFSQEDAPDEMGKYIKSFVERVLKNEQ

| Molecule | EC50 [2, 14] [µM] | EC50 ([3]; West Nile virus, Vero) [µM] | CC50 at 24 h [6] [µM] | CC50 [12] [µM] | % replicon inhibition (Means ± SEM) DENV2 [2] [%] | % replicon inhibition (Means ± SEM) WNV ([3]; Vero/WNV replicon cells) [%] | EC50 [3, 15] [µM] | CC50 [13] [µM] | further results |
| --- | --- | --- | --- | --- | --- | --- | --- | --- | --- |
| CCN(CC)Cc1cc(Nc2ccnc3cc(Cl)ccc23)ccc1O [Compound 1, 4-[(7-chloroquinolin-4-yl)amino]-2(diethylaminomethyl)phenol] | 10.8 ± 1.43 | 14.6 ± 2.21 | 24.4 ± 2.49 |  |  |  |  |  | interference with Rluc enzyme activity [1]: did not interfere; % replicon inhibition (Means ± SEM) DENV2 ([2]; listed as AQ): 76.31 ± 1.60%; EC50 ([2]; DENV2, BHK-21, 48 h, read-out: EC50 DENV2 replicon replication): 7.41 ± 1.09 µM; inhibition at 50 µM ([3]; West Nile virus, Vero, read-out: % replicon inhibition (Means ± SEM) WNV, 50 μM, 24 h, Vero/WNV replicon cells): 96.3 ± 0.39%; inhibition of formation of type I cap by NS5FL [4]: did not inhibit; Inhibition of RdRP activity, positive-strand RNA synthesis ([5]; 50 μM, 60 min): 10.58 ± 0.94%; inhibition at 50 µM ([5]; read-out: Inhibition of RdRP activity, negative-strand synthesis): -17.1 ± 4.37%; intracellular and extracellular DENV2 RNA levels (qRT-PCR) [7]: effectively inhibited DENV2 replication; effect on DENV2 protease [8]: no effect; plaque reduction, time of addition assay ([9]; 5 μM added as late as 15 h post-infection, MOI of 1, supernatants at 72 h): ≥ 90%; effect when added late, time of addition assay ([9]; 5 μM added at 21 h post-infection and later, MOI of 1): lost its inhibitory effect; reduction of plaque titer from DMSO control, order of addition assay ([9]; 5 μM added post-infection, MOI of 1, 48 and 72 h post-infection): ≥ 90%; plaque formation reduced (time course) ([9]; 5 μM, MOI of 0.01, up to 96 h): ≥ 90%; stability of AQ in infected cell culture ([9]; concluded from time course of inhibition, 37 °C, post-infection): at least 96 h; effect on DENV2 adsorption ([10]; 5 μM during adsorption only): does not inhibit DENV2 adsorption; virus titer reduction, direct plaque assay ([10]; 10 μM during adsorption only): 69.23 ± 1.57%; virus titer reduction, direct plaque assay ([10]; 25 μM during adsorption only): 82.70 ± 2.48%; CC50 at 48 h [11]: 52.1 ± 4.25 µM |
| Cl.ClCCN(CCCl)c1ccc(CCNc2ccnc3cc(Cl)ccc23)cc1 [Compound 4, Chloroquine ethyl phenyl mustard] |  |  |  | 74.1 ± 21.5 | > 99 | > 99 | 1.55 ± 0.4 | 5.02 ± 1.23 |  |
| CC(CCCN(CCCl)CCCl)Nc1ccnc2cc(Cl)ccc12 (stereo not drawn) [Compound 5, Chloroquine mustard] | 2.9 ± 0.78 | 2.95 ± 0.77 | 3.64 ± 0.93 |  | > 99 | > 99 |  |  |  |
| Quinacrine mustard [Compound 9] |  |  |  | 2.4 ± 0.63 | > 99 | > 99 | 0.36 ± 0.09 | 0.97 ± 0.11 |  |
